Laboratory results taken from article PMC4814829, “Design, synthesis, crystallization and biological evaluation of new symmetrical biscationic compounds as selective inhibitors of human Choline Kinase α1 (ChoKα1)” (Scientific Reports, 2016).
Read-outs that look alike come from different tables or passages of the source.

How the values were obtained:
Human fibroblasts = experiment: Antiproliferative assay in non-tumoral cells; format: cell-based; details: Fibroblast, mean ± SEM
Source text: Human fibroblasts from foreskin were isolated as previously described[58] and maintained in DMEM medium with 10% fetal bovine serum added.

purified human ChoKα1 = purified human ChoKα1 (Homo sapiens, UniProt P35790); experiment: Determination of human choline kinase α1 activity ([methyl-14C]choline incorporation into phosphocholine); format: biochemical
Sequence of purified human ChoKα1 (P35790 whole entry): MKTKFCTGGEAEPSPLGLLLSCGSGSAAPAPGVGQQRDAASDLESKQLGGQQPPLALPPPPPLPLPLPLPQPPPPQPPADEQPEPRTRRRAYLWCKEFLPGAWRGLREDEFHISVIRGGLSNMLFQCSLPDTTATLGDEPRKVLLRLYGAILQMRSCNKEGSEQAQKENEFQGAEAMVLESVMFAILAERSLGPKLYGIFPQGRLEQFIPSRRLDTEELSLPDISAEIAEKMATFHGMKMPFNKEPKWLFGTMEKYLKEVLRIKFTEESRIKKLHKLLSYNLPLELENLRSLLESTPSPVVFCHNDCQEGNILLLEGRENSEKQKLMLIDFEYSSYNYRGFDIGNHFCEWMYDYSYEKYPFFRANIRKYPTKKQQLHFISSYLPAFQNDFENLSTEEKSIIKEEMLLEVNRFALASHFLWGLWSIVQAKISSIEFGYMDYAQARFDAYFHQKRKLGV
Protocol: The effect of the different inhibitors on human choline kinase (ChoK) was assayed in ChoKα1 purified as previously described[32]. In each experiment DMSO-assays were always run in parallel as a control. DMSO in no case exceeded a concentration of 0.1% in order to avoid unspecific ChoK inhibition. ChoK activity was assayed by measuring the rate of incorporation of ^14C from [methyl-^14C]choline into phosphocholine both in the presence or absence of different inhibitor concentrations. Briefly, the final reaction mixture contained 100 mM Tris (pH 8.5), 10 mM MgCl2, and 10 mM ATP, and 20 ng of purified ChoKα1. […] The assay was stopped by immersing the reaction tubes in boiling water for 3 min. Aliquots of the reaction mixture were applied to the origin of Silica Gel plates in the presence of phosphocholine (0.1 mg) and choline (0.1 mg) as carriers. The chromatography was developed in methanol/0.6% NaCl/28% NH4OH in water (50:50:5, v/v/v) as solvent. Phosphocholine was visualized under exposure to iodine vapor and the corresponding spot was scraped and transferred to scintillation vials for measurement of radioactivity by a Beckman 6000-TA (Madrid, Spain) liquid-scintillation counter. At least three experiments were performed in all assays.

MCF-7 cells = experiment: Antiproliferative MTT assay; format: cell-based; details: Homo sapiens, MCF7, 72 h, mean ± SEM
Protocol: (§1) Human T-cell leukemia (Jurkat), human B-cell leukemia (RS 4,11) and human promyelocytic leukemia (HL-60) cells were grown in RPMI-1640 medium (Gibco, Milan, Italy). Breast adenocarcinoma (MCF-7 and MDA-MB-231), human non-small cell lung carcinoma (A549), human cervix carcinoma (HeLa), human prostate adenocarcinoma (PC-3), and human colon adenocarcinoma (HT-29) cells were grown in DMEM medium (Gibco, Milan, Italy). Both media were supplemented with 115 units/mL of penicillin G (Gibco, Milan, Italy), 115 μg/mL of streptomycin (Invitrogen, Milan, Italy) and 10% fetal bovine serum (Invitrogen, Milan, Italy). Stock solutions (10 mM) of the different compounds were obtained by dissolving them in DMSO. Individual wells of 96-well tissue-culture microtiter plates were inoculated with 100 μL of complete medium containing 8 × 10^3 cells. The plates were incubated at 37 °C in a humidified 5% CO2 incubator for 18 h prior to the experiments. After medium removal, 100 μL of fresh medium containing the test compound at different concentrations was added to each well and incubated at 37 °C for 72 h. The percentage of DMSO in the medium in no case exceeded 0.25%.

A549 cells = experiment: Antiproliferative MTT assay; format: cell-based; details: Homo sapiens, 72 h, mean ± SEM
Protocol: as §1

Jurkat cells = experiment: Antiproliferative MTT assay; format: cell-based; details: Homo sapiens, 72 h, mean ± SEM
Protocol: as §1

HT-29 cells = experiment: Antiproliferative MTT assay; format: cell-based; details: Homo sapiens, 72 h, mean ± SEM
Protocol: as §1

RS4,11 cells = experiment: Antiproliferative MTT assay; format: cell-based; details: Homo sapiens, 72 h, mean ± SEM
Protocol: as §1

HL-60 cells = experiment: Antiproliferative MTT assay; format: cell-based; details: Homo sapiens, 72 h, mean ± SEM
Protocol: as §1

MDA-MB-231 cells = experiment: Antiproliferative MTT assay; format: cell-based; details: Homo sapiens, 72 h, mean ± SEM
Protocol: as §1

PC-3 cells = experiment: Antiproliferative MTT assay; format: cell-based; details: Homo sapiens, 72 h, mean ± SEM
Protocol: as §1

HeLa cells = experiment: Antiproliferative MTT assay; format: cell-based; details: Homo sapiens, 72 h, mean ± SEM
Protocol: as §1

PBL (+Pha) = experiment: Antiproliferative assay in non-tumoral cells (MTT); format: cell-based; details: Homo sapiens, non-tumoral cells stimulated with phytohematoagglutinin, 72 h, mean ± SEM
Protocol: (§2) Peripheral mononuclear cells (PBMC) from healthy donors were obtained by separation on Lymphoprep (Fresenius KABI Norge AS) gradient. After extensive washing, cells were resuspended (1 × 10^6 cells/mL) in RPMI-1640 with 10% fetal bovine serum and incubated overnight. For cytotoxicity evaluations in proliferating PBL cultures, non-adherent cells were resuspended at 5 × 10^5 cells/mL in growth medium, containing 2.5 μg/mL PHA (Irvine Scientific). Different concentrations of the test compounds were added, and viability was determined 72 h later by the MTT test. For cytotoxicity evaluations in resting PBL cultures, non-adherent cells were resuspended (5 × 10^5 cells/mL) and treated for 72 h with the test compounds, as described above.

PBL (resting) = experiment: Antiproliferative assay in non-tumoral cells (MTT); format: cell-based; details: Homo sapiens, 72 h, mean ± SEM
Protocol: as §2

human ChoKα1 = target: T1, human ChoKα1 (Homo sapiens, UniProt P35790); experiment: Tryptophan fluorescence quenching; format: binding; details: mean ± S.D. of at least three independent experiments; 25 °C, enzyme 1 μM; read-out: HsChoKα1 Kd
T1 construct: made in house
T1 sequence (P35790 whole entry): as above
Protocol: All compounds were prepared in 100% DMSO. Their Kds against human ChoKα1 were measured by monitoring the quenching of tryptophan fluorescence. All experiments were performed in a Cary Eclipse spectrofluorometer (Varian) at 25 °C with the enzymes at 1 μM, and concentrations of compounds varying from 0.1 to 5 μM for ChoKα1 in 25 mM Tris, 150 mM NaCl, pH 7.5. Fluorescence emission spectra were recorded in the 300–400 nm range with an excitation wavelength of 280 nm, with slit width of 5 nm. Controls were determined by incubating the enzymes with equivalent amounts of DMSO. As indicated previously, data analysis was performed in Prism (GraphPad software) considering a model with a single binding site (Eq. 1), where F0 is the intrinsic fluorescence of the enzyme in the absence of quencher (Q), F1 is the observed fluorescence at a given quencher concentration, fa is the fractional degree of fluorescence, and Kd is the dissociation constant.

[1] = tested on: panel of nine different human tumor-cell lines; experiment: Antiproliferative activity against the panel of nine human tumor-cell lines; format: cell-based; details: for GI50: Homo sapiens, range or bound over all tested cell lines, read-out: GI50 across the tumor-cell line panel
Protocol: as §1

[2] = mean ± SEM, three independent experiments, read-out: IC50 ChoKα1 purified

Clc1ccc2c(N3CCCCCC3)cc[n+](Cc3ccc(OCCOc4ccc(C[n+]5ccc(N6CCCCCC6)c6ccc(Cl)cc65)cc4)cc3)c2c1 [Compound 10k, 1,1′-(((ethane-1,2-diylbis(oxy))bis(4,1-phenylene))bis(methylene))bis(4-(azepan-1-yl)-7-chloroquinolinium) bromide]
GI50 (Human fibroblasts): 3200 ± 860 nM | IC50 (purified human ChoKα1; [2]): 2020 ± 80 nM | GI50 (MCF-7 cells): 280 ± 90 nM | GI50 (A549 cells): 520 ± 20 nM | GI50 (Jurkat cells): 72 ± 13 nM | GI50 (HT-29 cells): 270 ± 50 nM | GI50 (RS4,11 cells): 36 ± 8 nM | GI50 (HL-60 cells): 180 ± 60 nM | GI50 (MDA-MB-231 cells): 61 ± 3 nM | GI50 (PC-3 cells): 110 ± 28 nM | GI50 (HeLa cells): 260 ± 74 nM | GI50 (PBL (+Pha)): 34 ± 7 nM | GI50 (PBL (resting)): 2100 ± 800 nM | Kd (human ChoKα1): 241 ± 30 nM

OC1C[N+]2(Cc3ccc(OCCOc4ccc(C[N+]56CCC(CC5)C(O)C6)cc4)cc3)CCC1CC2.[Br-].[Br-] (stereo not drawn) [Compound 10e, 1,1′-(((ethane-1,2-diylbis(oxy))bis(4,1-phenylene))bis(methylene))bis(3-hydroxyquinuclidinium) bromide]
IC50 (purified human ChoKα1): 9510 ± 1140 nM | GI50 [1]: > 10000 nM | Antiproliferative activity in all cell lines (in words) [1]: total loss of activity | GI50 (MCF-7 cells): 50900 ± 11700 nM | GI50 (A549 cells): > 100000 nM | GI50 (Jurkat cells): > 100000 nM | GI50 (HT-29 cells): 94000 ± 4200 nM | GI50 (RS4,11 cells): 66000 ± 6600 nM | GI50 (HL-60 cells): > 100000 nM | GI50 (MDA-MB-231 cells): 63200 ± 3900 nM | GI50 (PC-3 cells): 48000 ± 1100 nM | GI50 (HeLa cells): > 100000 nM

CN(C)c1cc[n+](Cc2ccc(CCCCc3ccc(C[n+]4ccc(N(C)c5ccc(Cl)cc5)cc4)cc3)cc2)cc1 [Compound 4, reference compound]
Kd (human ChoKα1): 110 ± 10 nM

CN(c1ccc(Cl)cc1)c1cc[n+](Cc2ccc(OCCOc3ccc(C[n+]4ccc(N(C)c5ccc(Cl)cc5)cc4)cc3)cc2)cc1 [Compound 10c, 1,1′-(((ethane-1,2-diylbis(oxy))bis(4,1-phenylene))bis(methylene))bis(4-((4-chlorophenyl)(methyl)amino)pyridinium) bromide]
IC50 (purified human ChoKα1; [2]): 1630 ± 140 nM | GI50 [1]: 2100 to 7300 nM | GI50 (MCF-7 cells): 3500 ± 720 nM | GI50 (A549 cells): 4900 ± 700 nM | GI50 (Jurkat cells): 7300 ± 500 nM | GI50 (HT-29 cells): 4300 ± 1100 nM | GI50 (RS4,11 cells): 2700 ± 130 nM | GI50 (HL-60 cells): 2100 ± 600 nM | GI50 (MDA-MB-231 cells): 2200 ± 270 nM | GI50 (PC-3 cells): 3100 ± 700 nM | GI50 (HeLa cells): 5600 ± 250 nM

c1cc(OCCOc2ccc(C[n+]3ccc(N4CCCC4)cc3)cc2)ccc1C[n+]1ccc(N2CCCC2)cc1 [Compound 10b, 1,1′-(((ethane-1,2-diylbis(oxy))bis(4,1-phenylene))bis(methylene))bis(4-(pyrrolidin-1-yl)pyridinium) bromide]
GI50 (Human fibroblasts): 30500 ± 9600 nM | IC50 (purified human ChoKα1; [2]): 9560 ± 1450 nM | GI50 [1]: 42 to 4500 nM | GI50 (MCF-7 cells): 170 ± 32 nM | GI50 (A549 cells): 2300 ± 1100 nM | GI50 (Jurkat cells): 68 ± 16 nM | GI50 (HT-29 cells): 4300 ± 420 nM | GI50 (RS4,11 cells): 1120 ± 220 nM | GI50 (HL-60 cells): 42 ± 5 nM | GI50 (MDA-MB-231 cells): 90 ± 20 nM | GI50 (PC-3 cells): 4500 ± 1100 nM | GI50 (HeLa cells): 82 ± 41 nM | GI50 (PBL (+Pha)): 1880 ± 710 nM | GI50 (PBL (resting)): 34800 ± 15600 nM

CN(c1ccc(Cl)cc1)c1cc[n+](Cc2ccc(OCCOc3ccc(C[n+]4ccc(N(C)c5ccc(Cl)cc5)c5ccc(Cl)cc54)cc3)cc2)c2cc(Cl)ccc12 [Compound 10i, 1,1′-(((ethane-1,2-diylbis(oxy))bis(4,1-phenylene))bis(methylene))bis(7-chloro-4-((4-chlorophenyl)(methyl)amino)quinolinium) bromide]
IC50 (purified human ChoKα1; [2]): 16200 ± 440 nM | GI50 (MCF-7 cells): 660 ± 70 nM | GI50 (A549 cells): 290 ± 100 nM | GI50 (Jurkat cells): 760 ± 260 nM | GI50 (HT-29 cells): 1000 ± 150 nM | GI50 (RS4,11 cells): 500 ± 90 nM | GI50 (HL-60 cells): 870 ± 280 nM | GI50 (MDA-MB-231 cells): 150 ± 50 nM | GI50 (PC-3 cells): 720 ± 90 nM | GI50 (HeLa cells): 1500 ± 730 nM

C[N+]1(C)CCOC(O)(c2ccc(-c3ccc(C4(O)C[N+](C)(C)CCO4)cc3)cc2)C1 (stereo not drawn) [HC-3, reference compound]
Kd (human ChoKα1): 180 ± 30 nM

CN(c1ccccc1)c1cc[n+](Cc2ccc(OCCOc3ccc(C[n+]4ccc(N(C)c5ccccc5)c5ccccc54)cc3)cc2)c2ccccc12 [Compound 10f, 1,1′-(((ethane-1,2-diylbis(oxy))bis(4,1-phenylene))bis(methylene))bis(4-(methyl(phenyl)amino)quinolinium) bromide]
GI50 (Human fibroblasts): 9800 ± 2500 nM | IC50 (purified human ChoKα1; [2]): 6850 ± 810 nM | GI50 (MCF-7 cells): 170 ± 65 nM | GI50 (A549 cells): 210 ± 60 nM | GI50 (Jurkat cells): 60 ± 2 nM | GI50 (HT-29 cells): 120 ± 17 nM | GI50 (RS4,11 cells): 240 ± 50 nM | GI50 (HL-60 cells): 63 ± 13 nM | GI50 (MDA-MB-231 cells): 1 ± 1 nM | GI50 (PC-3 cells): 470 ± 120 nM | GI50 (HeLa cells): 150 ± 31 nM | GI50 (PBL (+Pha)): 100 ± 30 nM | GI50 (PBL (resting)): 1400 ± 600 nM | Kd (human ChoKα1): 295 ± 127 nM

[Br-].[Br-].c1cc(OCCOc2ccc(C[N+]34CCC(CC3)CC4)cc2)ccc1C[N+]12CCC(CC1)CC2 [Compound 10d, 1,1′-(((ethane-1,2-diylbis(oxy))bis(4,1-phenylene))bis(methylene))bis(quinuclidinium) bromide]
IC50 (purified human ChoKα1): 37500 ± 4450 nM | GI50 [1]: > 10000 nM | Antiproliferative activity in all cell lines (in words) [1]: total loss of activity | GI50 (MCF-7 cells): 91400 ± 7600 nM | GI50 (A549 cells): 61300 ± 16700 nM | GI50 (Jurkat cells): > 100000 nM | GI50 (HT-29 cells): > 100000 nM | GI50 (RS4,11 cells): 37500 ± 4200 nM | GI50 (HL-60 cells): 84100 ± 7400 nM | GI50 (MDA-MB-231 cells): 74300 ± 2600 nM | GI50 (PC-3 cells): 94300 ± 12400 nM | GI50 (HeLa cells): 16900 ± 2500 nM

c1ccc2c(c1)c(N1CCCCCC1)cc[n+]2Cc1ccc(OCCOc2ccc(C[n+]3ccc(N4CCCCCC4)c4ccccc43)cc2)cc1 [Compound 10j, 1,1′-(((ethane-1,2-diylbis(oxy))bis(4,1-phenylene))bis(methylene))bis(4-(azepan-1-yl)quinolinium) bromide]
GI50 (Human fibroblasts): 14300 ± 1200 nM | IC50 (purified human ChoKα1; [2]): 1660 ± 90 nM | GI50 (MCF-7 cells): 110 ± 47 nM | GI50 (A549 cells): 300 ± 68 nM | GI50 (Jurkat cells): 110 ± 26 nM | GI50 (HT-29 cells): 150 ± 80 nM | GI50 (RS4,11 cells): 160 ± 12 nM | GI50 (HL-60 cells): 420 ± 220 nM | GI50 (MDA-MB-231 cells): 10 ± 5 nM | GI50 (PC-3 cells): 90 ± 40 nM | GI50 (HeLa cells): 170 ± 84 nM | GI50 (PBL (+Pha)): 95 ± 21 nM | GI50 (PBL (resting)): 2000 ± 240 nM
